In this assay the test system is MDA-MB-468 breast. The assay is described as follows: inhibition of tumour cell growth, NCI panel, 48 h.

Values joined by “and” are separate entries in the source; they are usually repeats but may differ in a detail not shown here. Equal values may be shown once.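 Results reflect a 48-hour exposure of cells in 96-well plates to compound at five concentrations. The concentration for 50% growth inhibition is given as GI50. At the TGI there is no net growth.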

Consider `COc1ccc(-c2nnc(N3CCN(C(=O)CN4CCN(c5ccc(OC)cc5)CC4)CC3)nc2-c2ccc(OC)cc2)cc1`, for which the GI50 is 4.23 µM and the TGI amounted to 21.7 µM.
For the compound `C=C1CC2(OC1=O)C(=O)N(CCCN1C(=O)C3(CC(=C)C(=O)O3)c3ccccc31)c1ccccc12` (stereo unspecified), the GI50 was 1.28 µM and the TGI amounted to 3.25 µM.
The corresponding values for `NC(=O)C1(N2CCCCC2)CCN(CCCC(=O)c2ccc(F)cc2)CC1` are 0.0204 µM and 0.0682 µM.
For `CCCCCCCCCCCCCCCCCCNC(=O)[C@H]1CSC(c2cccs2)N1` (stereo partly specified) the same measures were 9.32 µM and > 50 µM.
For `O=C(O)CCC(NC(=S)S)C(=O)O.[Na+].[Zn+2]` (stereo unspecified) the same measures were > 50 µM and > 50 µM.
Consider `COc1ccccc1/C=C/C(=O)/C=C/c1ccccc1O`, for which the GI50 was 0.53 µM and the TGI was 2.06 µM.
The corresponding values for `CCC(=C(c1ccc(OCCCN(C)C)cc1)c1ccc(OCCCN(C)C)cc1)c1ccc(Cl)cc1` are 1.15 µM and 3.74 µM.
Consider `NC(=O)c1cccc(Nc2nccc(Nc3cccc(F)c3)n2)c1`, for which the GI50 is 3.88 µM and the TGI was found to be 12.8 µM.
Turning to `COc1ccc2cc(-c3ccc(-c4ccc(C(=N)N)s4)s3)ccc2c1`, the GI50 was 2.34 µM and the TGI came to 4.44 µM.
For `COCCOCCOCc1n(Cc2ccc3ccccc3n2)c2ccccc2[n+]1Cc1ccc2ccccc2c1`, the GI50 was 0.259 µM and the TGI was found to be 0.996 µM.
`CCCCCCCCCCCC[n+]1ccccc1` (tested in a mixture with another compound): the GI50 is 0.246 µM and the TGI was found to be 3.36 µM.
Turning to `Cn1cc(-c2csc(-c3cn(C)c4ccccc34)n2)c2cnccc21`, the GI50 was 0.265 µM and the TGI came out at 0.866 µM.
The corresponding values for `Cn1c(/C(C#N)=C/c2ccc3ccccc3c2)cc2ccccc21` are 0.422 µM and > 100 µM.
For `COc1cc2c(cc1-c1c(C)noc1C)cc(C)c(=O)n2Cc1ccccn1` the same measures were 0.859 µM and 4.8 µM.
The corresponding values for `O=C(/C=C/c1ccccc1)CC(c1ccccc1)N1CCOCC1` (stereo unspecified) are 2.05 µM and 5.56 µM.
For `O=S(=O)(CCOCc1ccc(-c2ccc3ncnc(Nc4ccc(OCc5cccc(F)c5)c(Cl)c4)c3c2)o1)c1ccccc1`, the GI50 was 0.105 µM and the TGI stood at 2.33 µM.
Take `CCN(CC)CCNC(=O)c1c(C)[nH]c(/C=C2\C(=O)Nc3ccc(F)cc32)c1C`: the GI50 is > 10 µM and 3.25 µM and 1.41 µM; the TGI is > 10 µM and 6.21 µM and 4.31 µM.
Take `CCN(CC)CCNC(=O)c1cn2ncnc(Oc3ccc(NC(=O)Nc4ccc(Cl)c(C(F)(F)F)c4)c(F)c3)c2c1C`: the GI50 is 1.57 µM and the TGI amounted to 3.2 µM.
As for `Cc1cc(Nc2nc(SCc3ccc(C(=O)Nc4ccc(F)cc4N)cc3)nn3cccc23)n[nH]1`, the GI50 is 0.432 µM and the TGI was determined as 36 µM.
The corresponding values for `CNC(=O)c1cc2c(Oc3ccc(NC(=O)C4(C(=O)Nc5ccc(F)cc5)CC4)cc3)ccnc2cc1OC` are 2.88 µM and 13.5 µM.
Turning to `COc1ccc(/C=C2/CCc3cc4ccc(OC)cc4[o+]c32)c(O)c1`, the GI50 was 14 µM and the TGI came to 34.9 µM.
The corresponding values for `CC1(C)N=C(N)N=C(N)N1c1ccc(OCC(=O)Nc2ccccc2)c(Cl)c1` are 3.05 µM and > 100 µM.
The corresponding values for `CCC1=C[C@@H]2CN(C1)Cc1c([nH]c3ccccc13)[C@@](C(=O)OC)(c1cc3c(cc1OC)N(C)[C@H]1[C@@](O)(C(=O)OC)[C@H](OC(C)=O)[C@]4(CC)[C@@H]5C[C@@H]5CN5CC[C@]31[C@@H]54)C2` are < 0.005 µM and 5.74 µM.
Turning to `Cc1nc(Nc2n[nH]c3c2CN(C(=O)N[C@H](CN(C)C)c2ccccc2)C3(C)C)c2sccc2n1`, the GI50 is 0.247 µM and 0.226 µM; the TGI is 2.26 µM and 2.47 µM.
Take `c1ccc(Cn2cnc3ccc(-c4nc(-c5ccc6c(c5)ncn6C5CCCCC5)cn5ccnc45)cc32)cc1`: the GI50 is 1.92 µM and the TGI stood at 4.43 µM.
On to `Cc1ncc(C(=O)Nc2ccc(CN3CCN(C)CC3)c(C(F)(F)F)c2)cc1C#Cc1cnc(NC2CC2)c2ncccc12`, for which the GI50 is 3.92 µM and the TGI came out at 9.32 µM.
In the case of `O=C1C(Cl)=C(Nc2ccccc2)C(=O)c2ccccc21`, the GI50 was 1.52 µM and the TGI was 3.1 µM.
As to `CC(=O)N[C@H](C(=O)N[C@@H](CCCNC(=N)N)C(=O)N[C@@H](CCCCN)C(=O)N[C@@H](CCCNC(=N)N)C(=O)N[C@]1(C)CCCCCC/C=C\CCC[C@@](C)(C(=O)N[C@@H](CCCNC(=N)N)C(=O)N[C@@H](CCC(=O)O)C(=O)N[C@@H](CC(C)C)C(=O)N[C@H](C(=O)N[C@@H](CCC(=O)O)C(N)=O)C(C)C)NC(=O)[C@H](CCC(N)=O)NC(=O)[C@H](CC(C)C)NC(=O)[C@H](CC(C)C)NC(=O)[C@H](CCCNC(=N)N)NC(=O)[C@H](CCCNC(=N)N)NC(=O)[C@H](CC(C)C)NC1=O)C(C)C`, the GI50 is 3.82 µM and the TGI was found to be 32.6 µM.
With `C[C@H](Cn1ncnn1)Nc1ncc2cc(Oc3ccc(F)cc3F)c(=O)n(C)c2n1`, the GI50 is > 25 µM and the TGI is > 25 µM.
As for `Cn1c([N+](=O)[O-])cnc1/C=C1\Oc2cc(Cl)ccc2C1=O`, the GI50 is 3.15 µM and the TGI came out at 15.2 µM.
Turning to `O=S1(=O)NCCCN1CCNc1nccc(-c2c(-c3cccc(O)c3)nc3sccn23)n1`, the GI50 is 13.3 µM and the TGI is > 86.1 µM.
On to `CCCCCCCCCCN=C(c1ccc(N(C)C)cc1)c1ccc(N(C)C)cc1`, for which the GI50 is 0.383 µM and the TGI was 36.7 µM.
As for `CC1CCCc2c1nn(C(=O)/C=C(\N)c1ccccc1)c2N` (stereo unspecified), the GI50 is 11.9 µM and the TGI was > 100 µM.

For the origin of these results see PubChem BioAssay (NCI).
